According to article PMC5773577, “Novel Miniature Membrane Active Lipopeptidomimetics against Planktonic and Biofilm Embedded Methicillin-Resistant Staphylococcus aureus” (Scientific Reports, 2018):
In brackets after ≈: the same amount, converted by molar mass. Like-named read-outs stand apart in the source and are kept apart here.

Columns and labels:
E. faecalis (ATCC 29212) = assay: microbe, parasite or virus in culture; type: cell-based; settings: Enterococcus faecalis, ATCC29212, MHB, 2–5 × 10^5 CFU/mL, 16–18 h, 37 °C, read-out: Minimum inhibitory concentration, MIC
Experimental: (§1) The antibacterial activity was evaluated as MIC using slight modifications to a serial broth micro dilution method as reported previously[66],[67]. Briefly, to each treatment well of the 96-well plate (Corning Incorporated, USA) 10 μL of peptidomimetic/antibiotic was added and subsequently diluted serial 2-fold in 0.2% BSA (in 0.01% acetic acid). Then to each well of the first 11 columns 100 μL of mid-log phase bacterial suspension in MHB medium was added to get 2–5 × 10^5 CFU/mL. Cultures without test peptidomimetics/antibiotics were used as growth control. Uninoculated MHB medium was used as negative control. The microtitre plates were incubated overnight with agitation (180 rpm) at 37 °C. After 16–18 h incubation, absorbance was read at 600 nm using an ELISA plate reader (Molecular Devices, Sunnyvale, CA, USA). The experiments were carried out in duplicate on at least three different days.

[1] = tested on: Vancomycin-resistant E. faecium (ATCC 700221); assay: microbe, parasite or virus in culture; type: cell-based; settings: Enterococcus faecium, ATCC700221, MHB, 2–5 × 10^5 CFU/mL, 16–18 h, 37 °C, read-out: Minimum inhibitory concentration, MIC
Experimental: as §1

[2] = tested on: E. faecium (E-447), clinical isolate of vancomycin-resistant E. faecium; assay: organism not typed; type: cell-based, Enterococcus faecium; settings: read-out: Minimum inhibitory concentration, MIC
Experimental: as §1

[3] = tested on: E. faecium (E-7846), clinical isolate of vancomycin-resistant E. faecium; assay: organism not typed; type: cell-based, Enterococcus faecium; settings: read-out: Minimum inhibitory concentration, MIC
Experimental: as §1

MRSA ATCC 33591 [4] = assay: microbe, parasite or virus in culture; type: cell-based, Staphylococcus aureus; settings: Staphylococcus aureus, MRSA ATCC 33591, read-out: Minimum inhibitory concentration, MIC
Experimental: An initial inoculum of mid-log phase 10^7 CFU/mL was used and MIC experiment was performed as described earlier. For serum/plasma stability assay a method as described previously was used with slight modifications. Briefly, 50 μL MHB medium containing desired concentration of test peptidomimetics was incubated with 50 µL mice plasma/fetal bovine serum for 3 h at 37 °C. After incubation, a 10 μL aliquot was taken out for MIC determination as described above. For the experiment, mid-log phase 2–5 × 10^5 CFU/mL were used as initial inoculum. For the growth control wells, an equivalent amount of plasma/FBS in the medium was also added to evaluate their effect on the viability of cells. A slight decrease in OD600 of cells incubated with mice plasma was observed compared to untreated growth control in MHB alone. The experiments were repeated on two different days and reproducible MIC values were observed.

MRSA ATCC 33591 [5] = assay: Membrane permeabilization assay, calcein-AM dye release, flow cytometry; type: cell-based, Staphylococcus aureus; settings: PBS, 37 °C, mean ± S.D., two days
Experimental: To assess the effect of designed peptidomimetics on membrane integrity of MRSA ATCC 33591 strain a calcein-AM dye release experiment was performed using the protocol described previously with slight modifications. Briefly, exponential phase MRSA ATCC 33591 culture was prepared in MHB medium as mentioned earlier and adjusted to OD600 = 1 (~10^9 CFU/mL) in PBS (10 mM sodium phosphate, 150 mM NaCl, pH 7.4). Thereafter, the cells were incubated at 37 °C with calcein-AM (2 μg/mL) in 10% MHB medium for 2 h. The calcein-loaded cells were washed once and re-suspended in PBS to OD600 = 0.5 (~10^8 CFU/mL). […] Subsequently, calcein fluorescence was measured via flow cytometry (Becton Dickinson (BD) FACS verse, San Jose, CA) with excitation and emission wavelengths of 488 nm and 530 ± 30 nm, respectively. For each sample, 10,000 cells were acquired. As a positive control, melittin (10 μM) was assayed under identical conditions. The experiment was repeated on two different days and mean ± S.D. is presented here. Corresponding to leakage a viability assay at 4 × MIC of respective test agents was also performed by incubating samples for 2 h at 37 °C and plating the diluted aliquots on BHI agar plates.

MRSA ATCC 33591 biofilm [6] = assay: Biofilm formation inhibition, crystal violet (CV) assay; type: cell-based, Staphylococcus aureus; settings: 24 h biofilm formation inhibition, 2.5 μg/mL
Experimental: (§2) For the experiment, a protocol as described previously was used with slight modifications. Briefly, desired concentrations of the test agents in PBS were added to the wells of a 96-well plate (100 μL). Thereafter, overnight grown stationary phase MRSA ATCC 33591 culture (~4 × 10^5 CFU/mL) in TSB medium (supplemented with 0.25% glucose and 0.5% NaCl) was added to the 96-well plates (100 μL). The plates were incubated at 37 °C without shaking for 24 h. After 24 h, the used medium was discarded and the biofilms formed were washed with PBS once. Subsequently, CV and AB assays were performed to quantify biomass and viability respectively, as described below:
For CV assay after washing the biofilms, the plates were heat fixed at 60 °C for 1 h and 0.1% aqueous CV solution (200 μL) was added to the wells. After 15 min incubation, excess CV was washed off and biomass adhered CV was dissolved in 33% glacial acetic acid (200 μL). The plates were kept at room temperature for 15 min. […] To quantify CV associated biomass, the absorbance was read at 570 nm.
The experiments were repeated on two different days and on each day 6 wells were used for a single treatment. […] Corresponding to CV and AB assay the viability of cells upon treatment was also evaluated. […] The agar plates were incubated at 37 °C for 16–24 h and CFUs were counted. […]

MRSA ATCC 33591 biofilm [7] = assay: Biofilm formation inhibition, alamar blue (AB) assay; type: cell-based, Staphylococcus aureus; settings: 24 h biofilm formation inhibition, 2.5 μg/mL
Experimental: as §2
For AB assay, after washing the treated biofilms, a solution of 10% AB reagent in TSB medium (200 μL) was added to the wells of the plates. The plates were sonicated briefly in a bath sonicator (5 min) and kept at room temperature for 30 min in dark. After 30 min, fluorescence was measured by exciting the samples at 550 nm and collecting emission at 590 nm.
The experiments were repeated on two different days and on each day 6 wells were used for a single treatment. Mean ± S.E. for both CV assay and AB assay is presented here. Corresponding to CV and AB assay the viability of cells upon treatment was also evaluated. […] The agar plates were incubated at 37 °C for 16–24 h and CFUs were counted. […]

With CN[C@H](CC(C)C)C(=O)N[C@H]1C(=O)N[C@@H](CC(N)=O)C(=O)N[C@H]2C(=O)N[C@H]3C(=O)N[C@H](C(=O)N[C@H](C(=O)O)c4cc(O)cc(O)c4-c4cc3ccc4O)[C@H](O)c3ccc(c(Cl)c3)Oc3cc2cc(c3O[C@@H]2O[C@H](CO)[C@@H](O)[C@H](O)[C@H]2O[C@H]2C[C@](C)(N)[C@H](O)[C@H](C)O2)Oc2ccc(cc2Cl)[C@H]1O [VAN, vancomycin] the MIC (E. faecalis (ATCC 29212)) was 1.4 µg/mL (≈ 0.966 µM), the MIC [1] was greater than 45.4 µg/mL and the MIC [2] was greater than 45.4 µg/mL. The MIC [3] was greater than 45.4 µg/mL, the MIC (MRSA ATCC 33591 [4]; after 3 h pre-incubation at 37 °C with fetal bovine serum (50%, v/v), inoculum 2–5 × 10^5 CFU/mL, repeated on two days) was 1.4 µg/mL (≈ 0.966 µM) and the MIC (MRSA ATCC 33591 [4]; after 3 h pre-incubation at 37 °C with mice plasma (50%, v/v), inoculum 2–5 × 10^5 CFU/mL, repeated on two days) was 1.4 µg/mL (≈ 0.966 µM). For the same molecule, the MIC (MRSA ATCC 33591 [4]; initial inoculum 10^7 CFU/mL, mid-log phase) was 2.8 µg/mL (≈ 1.93 µM), the “% calcein leakage” value (MRSA ATCC 33591 [5]; at 4 × MIC, 2 min incubation) was “did not cause any leakage” and the “% calcein leakage” value (MRSA ATCC 33591 [5]; at 4 × MIC, 2 h incubation) was 11.9 ± 9.2%. For the same molecule, the “% calcein leakage” value (MRSA ATCC 33591 [5]; at MIC, 2 min incubation) was 1.6 ± 2.3%, the “reduction of biomass (CV assay)” value (MRSA ATCC 33591 biofilm [6]) was greater than 95% and the “% viable cells compared to untreated control (AB assay)” value (MRSA ATCC 33591 biofilm [7]) was less than 1%.
